Source: PMC3020970, “K70Q Adds High-Level Tenofovir Resistance to “Q151M Complex” HIV Reverse Transcriptase through the Enhanced Discrimination Mechanism” (PLoS ONE, 2011)
Where “and” joins values, the source holds several entries; their conditions need not be identical. Equal values may be shown once.

How the values were obtained:
[1] = system: HIV-1 clinical isolate 1 (Q151Mc-containing); experiment: Single-cycle drug susceptibility assay (MAGIC-5 cells), clinical isolate 1; format: cell-based; details: Human immunodeficiency virus 1; clinical isolate 1, MAGIC-5 cells
Protocol: (§1) HIV was isolated from fresh plasma immediately after collection of clinical samples from study participants at the outpatient clinic of the AIDS Clinical Center (ACC), International Medical Center of Japan. The Institutional Review Board approved this study (IMCJ-H13-80) and a written consent was obtained from all participants.
(§2) Susceptibilities to various RT inhibitors were determined using the MAGIC-5 cells which are HeLa cells stably transfected with a β-galactosidase gene under the control of an HIV long terminal repeat promoter, and with vectors that express the CD4 receptor and the CCR5 co-receptor under the control of the CMV promoter as described previously. Briefly, MAGIC-5 cells were infected with diluted virus stock (100 blue forming units) in the presence of increasing concentrations of RT inhibitors, cultured for 48 h, fixed, and stained with X-Gal (5-bromo-4-chloro-3-indolyl-β-D-galacto-pyranoside). The stained cells were counted under a light microscope.

[2] = system: HIV-1 clinical isolate 2 (Q151Mc + K70Q); experiment: Single-cycle drug susceptibility assay (MAGIC-5 cells), clinical isolate 2; format: cell-based; details: Human immunodeficiency virus 1; clinical isolate 2, MAGIC-5 cells
Protocol: as §1, §2

HIV-1 NL4-3 strain (WT) = experiment: microbe, parasite or virus in culture; format: cell-based; details: Human immunodeficiency virus 1, NL43; WT, MAGIC-5 cells, Table S1; read-out: EC50
Protocol: as §2

HIV-1 WT = experiment: Single-cycle drug susceptibility assay (MAGIC-5 cells), recombinant WT clone; format: cell-based; details: Human immunodeficiency virus 1, Table S2
Protocol: (§3) The NL4-3-based molecular clone was constructed by replacing the pol-coding region with the HIV-1 BH10 strain. […] Each molecular clone was transfected into COS-7 cells. Cells were grown for 48 h, and culture supernatants were harvested and stored at −80°C until use.
as §2

HIV-1 Q151Mc/K70G = experiment: Single-cycle drug susceptibility assay (MAGIC-5 cells); format: cell-based; details: Human immunodeficiency virus 1, MAGIC-5; Q151Mc/K70G
Protocol: as §3, §2

HIV-1 Q151Mc/K70T = experiment: as above; format: cell-based
Protocol: as §3, §2

HIV-1 Q151Mc/K70R = experiment: as above; format: cell-based
Protocol: as §3, §2

HIV-1 Q151Mc = experiment: as above; format: cell-based; details: Human immunodeficiency virus 1, MAGIC-5
Protocol: as §3, §2

HIV-1 K70Q = experiment: as above; format: cell-based
Protocol: as §3, §2

HIV-1 K70N = experiment: as above; format: cell-based
Protocol: as §3, §2

HIV-1 Q151Mc/K70N = experiment: as above; format: cell-based
Protocol: as §3, §2

HIV-1 K70T = experiment: as above; format: cell-based
Protocol: as §3, §2

HIV-1 K70R = experiment: as above; format: cell-based
Protocol: as §3, §2

HIV-1 Q151Mc/K70Q = experiment: as above; format: cell-based; details: Human immunodeficiency virus 1, MAGIC-5; Q151Mc/K70Q
Protocol: as §3, §2

HIV-1 K70E = experiment: as above; format: cell-based
Protocol: as §3, §2

HIV-1 Q151Mc/K70E = experiment: as above; format: cell-based
Protocol: as §3, §2

HIV-1 K70G = experiment: as above; format: cell-based
Protocol: as §3, §2

HIV-1 RT K70Q/Q151Mc = biological target: T1, HIV-1 RT K70Q/Q151Mc (Human immunodeficiency virus type 1 group M subtype B, UniProt P03366, A661V/F676L/F715Y/K669Q/Q750M/V674I); experiment: Pre-steady state kinetics of binding and incorporation; format: biochemical; details: K70Q/Q151Mc RT
T1 construct: made in house; host or cells: Escherichia coli BL21
Protocol: (§4) Determination of active site concentrations in the different preparations of WT and mutant RTs were performed using pre-steady state burst experiments. […] The reactions were quenched at various times (10 ms to 5 s) by adding EDTA to a final concentration of 50 mM. The amounts of product (P18-dAMP) were quantitated and fit to the following burst equation: [drawing 1] (1) where A is the amplitude of the burst phase that represents the RT-DNA complex at the start of the reaction, k obs is the observed burst rate constant for dNTP incorporation, k ss is the steady state rate constant, and t is the reaction time. The rate constant of the linear phase (kcat) can be estimated by dividing the slope of the linear phase by the enzyme concentration. The active site concentration and template/primer binding affinity (KD-DNA) were determined by plotting the amplitude (A) against the concentration of template/primer. The data were fit using non-linear regression to a quadratic equation: [drawing 2] (2) where KD is the dissociation constant for the RT-DNA complex, and [RT] is the concentration of active polymerase molecules. Subsequent biochemical experiments were performed using corrected active site concentrations, [43].
(§5) HIV-1 RT (50 nM active sites) was pre-incubated with 50 nM T31/P18 in one syringe (Syringe A), whereas varying concentrations of dNTP and 10 mM MgCl2 were kept in another syringe (Syringe B). The solutions were rapidly mixed to initiate reactions, which were subsequently quenched at various times (5 ms to 10 s) by adding EDTA to a final concentration of 50 mM. The products from each quenched reaction were resolved, quantitated, and plotted as described above. The data were fit by non-linear regression to the burst equation (Eq 1).
(§6) To obtain the dissociation constant KD-dNTP for dNTP binding to the RT-DNA complex, the observed burst rates (kobs) were fit to the hyperbolic equation (Eq. 3) using nonlinear regression: [drawing 3] (3) where kpol is the optimal rate of dNTP incorporation.
(§7) The kinetics of TFV incorporation by the WT and mutant enzymes were carried out in a manner similar to that employed for natural dNTP substrate except the time of reactions. It was noted that the mutant enzymes required longer time to incorporate TFV compared to the WT HIV-1 RT (detailed in the Results section).

HIV-1 RT Q151Mc = biological target: T2, HIV-1 RT Q151Mc (Human immunodeficiency virus type 1 group M subtype B, UniProt P03366, A661V/F676L/F715Y/Q750M/V674I); experiment: as above; format: biochemical
T2 construct: made in house; host or cells: Escherichia coli BL21
Protocol: as §4, §5, §6, §7

HIV-1 RT WT = biological target: T3, HIV-1 RT WT (Human immunodeficiency virus type 1 group M subtype B, UniProt P03366); experiment: as above; format: biochemical
T3 construct: made in house; host or cells: Escherichia coli BL21
Protocol: as §4, §5, §6, §7

HIV-1 RT K70Q = biological target: T4, HIV-1 RT K70Q (Human immunodeficiency virus type 1 group M subtype B, UniProt P03366, K669Q); experiment: as above; format: biochemical; details: K70Q RT
T4 construct: made in house; host or cells: Escherichia coli BL21
Protocol: The reactions were quenched at various times (10 ms to 5 s) by adding EDTA to a final concentration of 50 mM. The amounts of product (P18-dAMP) were quantitated and fit to the following burst equation: [drawing 1] (1) where A is the amplitude of the burst phase that represents the RT-DNA complex at the start of the reaction, k obs is the observed burst rate constant for dNTP incorporation, k ss is the steady state rate constant, and t is the reaction time. The rate constant of the linear phase (kcat) can be estimated by dividing the slope of the linear phase by the enzyme concentration. The active site concentration and template/primer binding affinity (KD-DNA) were determined by plotting the amplitude (A) against the concentration of template/primer. The data were fit using non-linear regression to a quadratic equation: [drawing 2] (2) where KD is the dissociation constant for the RT-DNA complex, and [RT] is the concentration of active polymerase molecules. Subsequent biochemical experiments were performed using corrected active site concentrations, [43].
as §5, §6

Question: What does the source list for `Cc1cn([C@H]2C=C[C@@H](CO)O2)c(=O)[nH]c1=O` [d4T, stavudine]?
Answer: EC50 [1]: 18.3 ± 1.53 µM; EC50 [2]: > 100 µM; EC50 (HIV-1 NL4-3 strain (WT)): 2 ± 0.55 µM; EC50 (HIV-1 WT): 2.6 ± 0.23 µM; EC50 (HIV-1 Q151Mc/K70G): 115 ± 5.1 µM; EC50 (HIV-1 Q151Mc/K70T; Human immunodeficiency virus 1, MAGIC-5, Q151Mc/K70T): 16 ± 2.7 µM; Fold increase in EC50 compared to HIV-1 Q151Mc (HIV-1 Q151Mc/K70T; Q151Mc/K70T vs Q151Mc): (0.6) fold; EC50 (HIV-1 Q151Mc/K70R; Human immunodeficiency virus 1, MAGIC-5, Q151Mc/K70R): 44 ± 4.5 µM; Fold increase in EC50 compared to HIV-1 Q151Mc (HIV-1 Q151Mc/K70R; Q151Mc/K70R vs Q151Mc): (1.8) fold; EC50 (HIV-1 Q151Mc): 25 ± 2.3 µM; EC50 (HIV-1 K70Q; Human immunodeficiency virus 1, MAGIC-5, K70Q): 3 ± 0.21 µM; Fold increase in EC50 compared to HIV-1 WT (HIV-1 K70Q; K70Q vs WT): (1.2) fold; EC50 (HIV-1 K70N; Human immunodeficiency virus 1, MAGIC-5, K70N): 3.4 ± 0.25 µM; Fold increase in EC50 compared to HIV-1 WT (HIV-1 K70N; K70N vs WT): (1.3) fold; EC50 (HIV-1 Q151Mc/K70N; Human immunodeficiency virus 1, MAGIC-5, Q151Mc/K70N): 25 ± 4 µM; Fold increase in EC50 compared to HIV-1 Q151Mc (HIV-1 Q151Mc/K70N; Q151Mc/K70N vs Q151Mc): (1) fold; EC50 (HIV-1 K70T; Human immunodeficiency virus 1, MAGIC-5, K70T): 2.2 ± 0.17 µM; Fold increase in EC50 compared to HIV-1 WT (HIV-1 K70T; K70T vs WT): (0.8) fold; EC50 (HIV-1 K70R; Human immunodeficiency virus 1, MAGIC-5, K70R): 4.3 ± 0.57 µM; Fold increase in EC50 compared to HIV-1 WT (HIV-1 K70R; K70R vs WT): (1.7) fold; EC50 (HIV-1 Q151Mc/K70Q): 110 ± 6.6 µM; EC50 (HIV-1 K70E; Human immunodeficiency virus 1, MAGIC-5, K70E): 16 ± 2.7 µM; Fold increase in EC50 compared to HIV-1 WT (HIV-1 K70E; K70E vs WT): (6.2) fold; EC50 (HIV-1 Q151Mc/K70E; Human immunodeficiency virus 1, MAGIC-5, Q151Mc/K70E): 32 ± 3.6 µM; Fold increase in EC50 compared to HIV-1 Q151Mc (HIV-1 Q151Mc/K70E; Q151Mc/K70E vs Q151Mc): (1.3) fold; EC50 (HIV-1 K70G; Human immunodeficiency virus 1, MAGIC-5, K70G): 4.3 ± 0.26 µM; Fold increase in EC50 compared to HIV-1 WT (HIV-1 K70G; K70G vs WT): (1.7) fold

Question: For `Nc1ncnc2c1ncn2[C@H]1C[C@H](O)[C@@H](COP(=O)(O)OP(=O)(O)OP(=O)(O)O)O1` [dATP], which “k pol/Kd” value (HIV-1 RT K70Q/Q151Mc) is on record?
Answer: The value was 2.9e+06 M⁻¹ s⁻¹ and 2.9e+06 ± 300000 M⁻¹ s⁻¹.

Question: What about the k pol (HIV-1 RT K70Q/Q151Mc; T31/P18, 37°C) of the same molecule?
Answer: Its k pol is 14.6 s⁻¹ and 14.6 ± 1.6 s⁻¹.

Question: What about the Kd (HIV-1 RT K70Q/Q151Mc; binding to RT-DNA complex) of the same molecule?
Answer: Its Kd is 5 ± 0.07 µM.

Question: And the “k pol/Kd” value (HIV-1 RT Q151Mc)?
Answer: Its value is 3.3e+06 M⁻¹ s⁻¹ and 3.3e+06 ± 300000 M⁻¹ s⁻¹.

Question: What about the k pol (HIV-1 RT Q151Mc; T31/P18, 37°C) of the same molecule?
Answer: The k pol was 17.9 s⁻¹ and 17.9 ± 0.4 s⁻¹.

Question: And the Kd (HIV-1 RT Q151Mc; binding to RT-DNA complex)?
Answer: The Kd was 5.4 ± 0.5 µM.

Question: And the “k pol/Kd” value (HIV-1 RT WT)?
Answer: The value was 2.4e+06 M⁻¹ s⁻¹ and 2.4e+06 ± 200000 M⁻¹ s⁻¹.

Question: And the k pol (HIV-1 RT WT; T31/P18, 37°C)?
Answer: The k pol was 6.3 s⁻¹ and 6.3 ± 0.5 s⁻¹.

Question: What about the Kd (HIV-1 RT WT; binding to RT-DNA complex) of the same molecule?
Answer: The Kd was 2.6 ± 0.1 µM.

Question: What about the k pol (HIV-1 RT K70Q; T31/P18, 37°C) of the same molecule?
Answer: The k pol was 8.4 ± 0.4 s⁻¹.

Question: And the Kd (HIV-1 RT K70Q; binding to RT-DNA complex)?
Answer: The Kd was 3.8 ± 0.6 µM.
